Test results from paper PMC3334918, “Mutagenesis and Functional Studies with Succinate Dehydrogenase Inhibitors in the Wheat Pathogen Mycosphaerella graminicola” (PLoS ONE, 2012).
Several values for one entry are separate records, joined by “and”; a condition that tells them apart may be missing. Equal entries are not always repeated.

Experiments:
Experiment in all cases: in vitro succinate: Q0/DCPIP activity test, purified mitochondria
[1] = tested on: SDH D_D129T (strain Flu29); format: biochemical, Mycosphaerella graminicola; details: ratio IC50mutant/IC50WT, single determination, FR** (full resistance) = no sufficient inhibition detected at highest inhibitor concentration tested
Method: (§1) To explore the sensitivity profiles conferred by amino acid substitutions at the cellular and mitochondrial level, we determined sensitivity towards 4 different compounds for 26 of the identified substitution types both in vivo using liquid culture growth (AE media) and in vitro using purified mitochondria and the succinate: Q0/DCPIP activity test (Table 3). […] Resistance factors (RF) were determined as the ratio IC50mutant/IC50WT. […] Qp site mutations are well known to influence SDH enzyme activity and stability upon catalysis, [13], [38], [41].
(§2) Strains were grown in 1 liter TSM40 units. Cultures were inoculated at 0.05 OD600 nm and grown on a reciprocal shaker (110 rpm, 22°C) for 5 days. Cells were harvested by vacuum filtration and disrupted in liquid nitrogen using a mortar and pestle. Resultant powder was re-suspended to 10% w/v in mitochondrial extraction buffer (10 mM KHPO4 pH7.2; 10 mM KCl, 10 mM MgCl2, 0.5 M sucrose, 0.2 mM EDTA, 2 mM PMSF). Extract was clarified by centrifugation (5,000 g, 4°C for 10 minutes, 2 times), intact mitochondria were then pelleted at 10,000 g for 20 minutes at 4°C. […] This volume was transferred to conical 1.5 ml tubes and re-centrifuged, 10,000 g for 10 minutes at 4°C. […] Mitochondrial suspensions were brought to a final concentration of 10 mg ml^−1 in extraction buffer and stored at −80°C until used.
(§3) Mitochondrial suspensions were incubated at 30°C for 30 minutes in extraction buffer supplemented with 10 mM succinate prior to enzymatic measurements.
(§4) A reaction plate was equilibrated for 10 minutes at 30°C before starting the reaction. DCPIP reduction was conducted at 30°C and monitored at 595 nm using a HTS7000 microtiterplate reader (Perkin Elmer). For calculations a molecular extinction coefficient of ε = 17 mM^−1 cm^−1 was used.
(§5) Inhibitor concentrations ranged between 1 mM and 0.95 nM with uniform 4× dilution factor steps (11 inhibitor concentrations+DMSO control). 96 wells plates were pre equilibrated at reaction temperature (30°C) for 10 minutes before the reactions were started by the addition of 5 µl preactivated M. graminicola mitochondrial suspension. Calculated absorbance slopes (OD/hour) were used for IC50 calculations using Graphpad Prism 5.0 software non linear curve fitting against log inhibitor concentrations.

[2] = tested on: SDH B_N271K (strain Flu33); format: biochemical, Mycosphaerella graminicola; details: ratio IC50mutant/IC50WT, single determination
Method: as §1, §2, §3, §4, §5

[3] = tested on: SDH B_H267Q (strain Bos59); format: biochemical, Mycosphaerella graminicola; details: ratio IC50mutant/IC50WT, single determination
Method: as §1, §2, §3, §4, §5

SDH C_V88D (strain Ol50) = format: biochemical, Mycosphaerella graminicola; details: ratio IC50mutant/IC50WT, single determination
Method: as §1, §2, §3, §4, §5

[4] = tested on: SDH B_H267L (strain Cbx29); format: biochemical, Mycosphaerella graminicola; details: ratio IC50mutant/IC50WT, single determination
Method: as §1, §2, §3, §4, §5

[5] = tested on: SDH B_I269V (strain Cbx1); format: biochemical, Mycosphaerella graminicola; details: ratio IC50mutant/IC50WT, single determination
Method: as §1, §2, §3, §4, §5

[6] = tested on: SDH C_A84I (strain Flu21); format: biochemical, Mycosphaerella graminicola; details: ratio IC50mutant/IC50WT, single determination
Method: as §1, §2, §3, §4, §5

[7] = tested on: SDH B_P220L (strain Flu75); format: biochemical, Mycosphaerella graminicola; details: ratio IC50mutant/IC50WT, single determination
Method: as §1, §2, §3, §4, §5

[8] = tested on: SDH C_T79I (strain Bos64); format: biochemical, Mycosphaerella graminicola; details: ratio IC50mutant/IC50WT, single determination
Method: as §1, §2, §3, §4, §5

[9] = molecular target: succinate dehydrogenase (SDH), WT (IPO323) (Zymoseptoria tritici (Mycosphaerella graminicola), UniProt F9X9V6+F9XG45+F9XH52); format: biochemical; details: ±S.E. (triplicate), read-out: IC50 in vitro
Chain of succinate dehydrogenase (SDH), WT (IPO323) (F9XG45 entry or part of it): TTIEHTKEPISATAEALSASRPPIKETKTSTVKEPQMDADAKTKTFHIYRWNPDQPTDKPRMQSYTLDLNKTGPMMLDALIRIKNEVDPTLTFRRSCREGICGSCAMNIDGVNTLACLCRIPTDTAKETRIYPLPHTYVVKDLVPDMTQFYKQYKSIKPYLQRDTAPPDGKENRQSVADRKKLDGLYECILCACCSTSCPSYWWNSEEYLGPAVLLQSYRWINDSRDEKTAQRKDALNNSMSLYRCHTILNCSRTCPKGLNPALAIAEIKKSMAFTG
Chain of succinate dehydrogenase (SDH), WT (IPO323) (F9X9V6 entry or part of it): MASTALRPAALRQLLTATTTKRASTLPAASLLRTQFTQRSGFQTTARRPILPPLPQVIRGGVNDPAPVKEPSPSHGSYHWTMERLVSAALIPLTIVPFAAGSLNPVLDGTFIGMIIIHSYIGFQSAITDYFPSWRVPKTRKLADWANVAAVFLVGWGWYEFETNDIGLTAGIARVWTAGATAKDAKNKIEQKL
Chain of succinate dehydrogenase (SDH), WT (IPO323) (F9XH52 entry or part of it): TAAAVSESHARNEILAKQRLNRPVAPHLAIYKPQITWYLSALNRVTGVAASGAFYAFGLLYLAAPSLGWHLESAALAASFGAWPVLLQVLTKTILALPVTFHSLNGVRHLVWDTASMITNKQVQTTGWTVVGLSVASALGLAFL
Method: as §1, §2, §3, §4, §5

## CC(C)C1C2CCC1c1c(NC(=O)c3cn(C)nc3C(F)F)cccc12 (stereo not shown) [Isopyrazam]
[1]
  Resistance Factors (RFs) in vitro: 4095 and 4095.5
[2]
  Resistance Factors (RFs) in vitro: 89.5
[3]
  Resistance Factors (RFs) in vitro: 34.6
SDH C_V88D (strain Ol50)
  Resistance Factors (RFs) in vitro: 140.4
[4]
  Resistance Factors (RFs) in vitro: 3248.5
[5]
  Resistance Factors (RFs) in vitro: 3.6
[6]
  Resistance Factors (RFs) in vitro: 8.1
[7]
  Resistance Factors (RFs) in vitro: 1.2
[8]
  Resistance Factors (RFs) in vitro: 56.4
[9]
  IC50: 5 ± 0.3 nM
